Reference: patent US9487489B2, “Halogen-substituted pyrazole derivatives as pest-control agents” (BAYER CROPSCIENCE AKTIENGESELLSCHAFT, priority 2013, dated 2016)

Experiments:
[1] = logP determination by HPLC on a reversed-phase column (C18), EEC Directive 79/831 Annex V.A8; assay type: physicochemical; conditions: HPLC on reversed-phase column (C18), acetonitrile/water with formic acid, EEC Directive 79/831 Annex V.A8
Summary of the method: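 Per EEC 79/831 Annex V.A8, values derive from HPLC retention at 2.0 ml/min and 55° C on a 50*4.6 C18 column. The 10→95% acetonitrile gradient (0.1%/0.09% formic acid) lasted 4.25 min plus a 1.25 min hold; mass detection was by MSD.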

[2] = tested on: adult cat fleas (Ctenocephalides felis); experiment: Ctenocephalides felis oral test (CTECFE); assay type: in vivo; conditions: application rate 100 ppm in citrated cattle blood; after 2 days
Experimental: D. Ctenocephalides felis-oral Test (CTECFE)
(§1) Solvent: dimethyl sulphoxide
To produce a suitable preparation of active compound, 10 mg of active compound are mixed with 0.5 ml of dimethyl sulphoxide. Dilution with citrated cattle blood gives the desired concentration.
About 20 unfed adult cat fleas (Ctenocephalides felis) are placed into a chamber which is closed at the top and bottom with gauze. A metal cylinder whose bottom end is closed with a parafilm is placed onto the chamber. The cylinder contains the blood/active ingredient preparation, which can be imbibed by the fleas through the parafilm membrane.
After 2 days, the kill in % is determined 100% means that all of the fleas have been killed; 0% means that none of the fleas have been killed.

[3] = tested on: L1 larvae of the Australian sheep blowfly (Lucilia cuprina); experiment: Lucilia cuprina test (LUCICU); assay type: in vivo; conditions: application rate 100 ppm; after 2 days
Experimental: E. Lucilia cuprina Test (LUCICU)
as §1
To produce a suitable preparation of active compound, 10 mg of active compound are mixed with 0.5 ml of dimethyl sulphoxide, and the concentrate is diluted with water to the desired concentration.
About 20 L1 larvae of the Australian sheep blowfly (Lucilia cuprina) are transferred into a test vessel containing minced horsemeat and the active compound preparation of the desired concentration.
After 2 days, the kill in % is determined 100% means that all of the larvae have been killed; 0% means that none of the larvae have been killed.

[4] = tested on: engorged adult female cattle ticks (Boophilus microplus); experiment: Boophilus microplus injection test (BOOPMI Inj); assay type: in vivo; conditions: application rate 20 μg/animal; injection into abdomen; assessed after 7 days
Experimental: C. Boophilus microplus-injection Test (BOOPMI Inj)
as §1
To produce a suitable preparation of active compound, 10 mg of active compound are mixed with 0.5 ml of solvent, and the concentrate is diluted with solvent to the desired concentration.
1 μl of the active compound solution is injected into the abdomen of 5 engorged adult female cattle ticks (Boophilus microplus). The animals are transferred into dishes and kept in a climate-controlled room.
The activity is assessed after 7 days by laying of fertile eggs. Eggs whose fertility is not visible from the outside are stored in a climate-controlled cabinet until the larvae hatch after about 42 days. An efficacy of 100% means that none of the ticks has laid any fertile eggs; 0% means that all eggs are fertile.

[5] = tested on: larvae of the mustard beetle (Phaedon cochleariae); experiment: Phaedon cochleariae spray test (PHAECO); assay type: in vivo; conditions: Chinese cabbage leaf discs, after 7 days
Summary of the method: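 Kill of mustard beetle larvae is read as % mortality 7 days after spraying. Spray liquid: active compound in acetone plus dimethylformamide, brought up with water holding 1000 ppm alkylaryl polyglycol ether emulsifier and diluted further in emulsifier-water.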

[6] = tested on: greenhouse red spider mite (Tetranychus urticae); experiment: Tetranychus urticae spray test, OP-resistant (TETRUR); assay type: in vivo; conditions: bean leaf discs, after 6 days
Experimental: J. Tetranychus urticae-spray Test, OP-Resistant (TETRUR)
(§2) Solvent: 78.0 parts by weight of acetone
(§3) • 1.5 parts by weight of dimethylformamide Emulsifier: alkylaryl polyglycol ether
(§4) To produce a suitable preparation of active compound, 1 part by weight of active compound is dissolved using the stated parts by weight of solvent and made up with water comprising an emulsifier concentration of 1000 ppm until the desired concentration is reached. To produce further test concentrations, the preparation is diluted with emulsifier-containing water.
Discs of bean leaves (Phaseolus vulgaris) which are infested by all stages of the greenhouse red spider mite (Tetranychus urticae) are sprayed with an active compound preparation of the desired concentration.
After 6 days, the efficacy in % is determined. 100% means that all of the spider mites have been killed; 0% means that none of the spider mites have been killed.

[7] = tested on: caterpillars of the armyworm (Spodoptera frugiperda); experiment: Spodoptera frugiperda spray test (SPODFR); assay type: in vivo; conditions: maize leaf discs, after 7 days
Experimental: I. Spodoptera frugiperda-spray Test (SPODFR)
as §2, §3, §4
Leaf discs of maize (Zea mays) are sprayed with an active compound preparation of the desired concentration and, after drying, populated with caterpillars of the armyworm (Spodoptera frugiperda).
After 7 days, the efficacy in % is determined. 100% means that all of the caterpillars have been killed; 0% means that none of the caterpillars have been killed.

[8] = tested on: adult cat fleas (Ctenocephalides felis); experiment: Ctenocephalides felis in vitro contact test with adult cat fleas (T1); conditions: after 48 h
Summary of the method: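 Adult cat fleas (Ctenocephalides felis), 5-10 per tube, were exposed to the inner surface of 25 ml test tubes coated with compound in acetone. Tubes were incubated lying flat under ambient conditions. Efficacy was then read by standing tubes upright and knocking the fleas to the floor. Fleas that stayed motionless or moved uncoordinatedly counted as dead or moribund, where 100% means all fleas dead or moribund and 0% means none harmed.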

SMILES | logP [1] | efficacy (kill in %) [2] [%] | efficacy (kill in %) [3] [%] | efficacy (laying of fertile eggs) [4] [%] | efficacy in % ([5]; application rate 100 g/ha) [%] | efficacy in % ([6]; application rate 100 g/ha) [%] | efficacy in % ([7]; application rate 100 g/ha) [%] | efficacy in % ([5]; application rate 500 g/ha) [%] | efficacy in % ([6]; application rate 500 g/ha) [%] | efficacy (dead or moribund fleas) ([8]; application rate 1 μg/cm^2) [%] | efficacy (dead or moribund fleas) ([8]; application rate 5 μg/cm^2) [%] | efficacy in % ([7]; application rate 500 g/ha) [%]
CON=Cc1c(C(F)(F)F)nn(C)c1-n1cc(-c2ccc(Cl)c(C(=O)NC3(C#N)CC3)c2)cn1 (mixture of isomers) [Ic-99] | 3.09 | 100 | 80 | 100 | 100 | 100 | – | – | – | – | – | –
Cn1nc(C(F)(F)C(F)(F)F)c(C(F)(F)F)c1-n1cc(-c2ccc(Cl)c(C(=O)NCc3cccs3)c2)cn1 [Ic-10] | 4.40 | 98 | 100 | 100 | 100 | 100 | 100 | – | – | – | – | –
Cc1c(-c2ccc(Cl)c(C(=O)NC3CC3)c2)cnn1-c1c(C(F)(F)F)c(C(F)(F)C(F)(F)F)nn1C [Ic-13] | 3.88 | 100 | 100 | 100 | 100 | 90 | 100 | – | – | – | – | –
Cn1nc(C(F)(F)C(F)(F)F)c(C(F)(F)F)c1-n1cc(-c2cccc(C(=O)NCc3ccccc3)c2)cn1 [Ic-17] | 4.31 | 90 | 100 | 100 | 100 | 100 | 100 | – | – | – | – | –
Cn1nc(C(F)(F)C(F)(F)F)c(C(F)(F)F)c1-n1cc(-c2cccc(C(=O)NCc3cccs3)c2)cn1 [Ic-20] | 4.20 | 100 | 100 | 100 | 100 | 100 | 100 | – | – | – | – | –
Cc1cc(C(=O)NC2(C#N)CC2)cc(-c2cnn(-c3c(C(F)(F)F)c(C(F)(F)C(F)(F)F)nn3C)c2)c1 [Ic-56] | – | 100 | 100 | 100 | – | 90 | – | 100 | – | – | – | –
COc1cc(C(=O)NC2(C#N)CC2)cc(-c2cnn(-c3c(C(F)(F)F)c(C(F)(F)C(F)(F)F)nn3C)c2)c1 [Ic-63] | – | 95 | 100 | 100 | – | 100 | – | 100 | – | – | – | –
CC(C)C(C)NC(=O)c1cc(-c2cnn(-c3c(C(F)(F)F)c(C(F)(F)C(F)(F)F)nn3C)c2)ccc1Cl (centres unmarked) [Ic-137] | – | 100 | 100 | 100 | – | – | – | 83 | 100 | – | – | –
Cn1nc(C(F)(F)C(F)(F)F)c(C(F)(F)F)c1-n1cc(-c2ccc(Cl)c(C(=O)Nc3cccnc3)c2)cn1 [Ic-149] | – | 100 | 100 | 100 | – | – | – | 100 | 100 | 80 | 100 | 100
Cn1nc(C(F)(F)C(F)(F)F)c(C(F)(F)F)c1-n1cc(-c2ccc(Cl)c(C(=O)Nc3cc[nH]n3)c2)cn1 [Ic-150] | – | 100 | 100 | 100 | – | – | – | 100 | 100 | – | – | 100
Cn1nc(C(F)(F)C(F)(F)F)c(C(F)(F)F)c1-n1cc(-c2ccc(Cl)c(C(=O)NCc3cc[nH]n3)c2)cn1 [Ic-157] | – | 90 | 100 | 100 | – | – | – | 100 | 100 | – | – | 100
COCC(C)NC(=O)c1cc(-c2cnn(-c3c(C(F)(F)F)c(C(F)(F)C(F)(F)F)nn3C)c2)ccc1Cl (centres unmarked) [Ic-165] | – | 100 | 100 | 100 | – | – | – | 100 | 100 | 100 | 100 | 100
